Test results taken from patent US5747506A, “Isoquinoline compounds, compositions containing them and their pharmaceutical uses” (Novartis AG, priority 1993, dated 1998).
Where two headings read alike, the source gives them in different places.

Tests used:
[1] = tested on: bacterial endotoxin (LPS) induced airways obstruction and lethality; assay: TEST E: Bacterial Endotoxin [LPS] Induced Lethality in the Guinea Pig; format: in vivo; details: 100/μg/kg/min.; hydrogen-oxalate salt
Experimental: TEST E: Bacterial Endotoxin [LPS] Induced Lethality in the Guinea Pig
Guinea-pigs are anesthetized by intraperitoneal injection of sodium phenobarbitone (100 mg/kg.) supplemented with sodium pentobarbitone (30 mg/kg) and paralyzed by intramuscular injection of gallamine (10 mg/kg). Animals are ventilated (8 ml/kg, 1 Hz) with a mixture of air and oxygen (40:60, v/v) via a tracheal cannula. Ventilation is monitored at the trachea by a pneumotachograph connected to a differential pressure transducer. […] Blood pressure and heart rate are recorded from the carotid artery using a pressure transducer and a cannula is introduced into the right jugular vein to allow intravenous infusion of test substance min prior to and concomitantly with infusion of LPS at a constant rate (3.0 ml/hr to give 10 mg/kg/hr) from an infusion pump. The left jugular vein is cannulated for administration of (±) propranolol (1 mg/kg) injected as an intravenous bolus. […] Experimental data is stored continuously and, on termination of an experiment, experimental traces or processed data are plotted.
Infusion of [±propanolol] ensures consistent susceptibility to LPS. In anesthetized animals pre-treated with [±] propanalol, infusion of LPS in the above model induces progressive airway obstruction. Death consequential to endotoxin shock usually occurs within ca. 1 hr of terminating LPS infusion.

[2] = stock solution of the hydrogen-oxalate salt; format: physicochemical; details: 10% Tween in 80% abs. C2H5OH
Experimental: [All experiments described below are suitably done using the hydrogen-oxalate salt of the test compound, e.g. compound of example 1. In the case of the example 1 compound a stable 30 mM stock solution of the hydrogen-oxalate salt may be prepared with 10% Tween in 80% abs. C2 H5 OH. For pharmacological experiments it should be diluted at least 1:10,000.]

cardiovascular effects = assay: Doppler aortic flow test in the rabbit; format: in vivo; details: hydrogen-oxalate salt
Description: Thus in a series of experiments using the Doppler aortic flow test in the rabbit [J. Pharmacol. Meth.

[3] = tested on: human PDE IV (neutrophils); assay: TEST A: Human PDE Isoenzyme Inhibition Assay, type IV; format: biochemical
Description: C2 H5 OH. For pharmacological experiments it should be diluted at least 1:10,000.]
TEST A: Human PDE Isoenzyme Inhibition Assay
All isoenzyme preparations are derived from human sources. Type III and IV preparations are obtained taking advantage of the predominance of type III isoenzymes in platelets and of type IV isoenzymes in neutrophils applying the following techniques:
Neutrophils (type IV) and platelets (types II and III) are obtained from human blood and sonicated (Branson probe, 4×15 sec.). Human lung (types I and V) is obtained from patients undergoing surgery and homogenized using a Polytron homogenizer (two bursts of 30 sec).
Isoenzyme preparations: PDE III and IV (substrate cAMP 1 μM) preparations consist of low-speed supernates of the platelet and neutrophil homogenates, respectively.

[4] = tested on: methacholine induced bronchoconstriction; assay: TEST J: Suppression of Methacholine (MeCH) Induced Broncho-Constriction in the Rhesus Monkey; format: in vivo; details: hydrogen-oxalate salt
Experimental: TEST J: Suppression of Methacholine (MeCH) Induced Broncho-Constriction in the Rhesus Monkey
Male rhesus monkeys (body weight 10.3-13.2 kg) are anesthetized with ketamine (20 mg/kg i.m., initial) and maintained with thiopental (8 mg/kg/h i.v.) via an indwelling catheter in the left saphenous vein, throughout the experimental procedure. Animals are allowed to breathe spontaneously, and are placed in the left lateral incumbent position. The larynx, eppiglottis and pharynx are anesthetized (topical xylocaine) allowing introduction and placement of a cuffed 4.5 mm pediatric endotracheal tube.
MeCH is administered as an aerosol (saline vehicle: aerosol generated by a nebulizer operated under an airflow of 6 l/min, mean particle size of 3.5 μm) with a 2 minute exposure, tidal breathing. All tests employ a 0.6 mg/ml solution or 2.5 mg/ml solution in the case of poor MeCH responders. MeCH bronchoconstrictor tests are spaced 30 min apart, with administration of test substance (in a lactose vehicle suspension, 1 mg/ml, 1 ml administered under bronchoscopic control, 1 cm above the carina) 15 min prior to MeCH challenge.
Test substance is administered in a cumulative manner. Bronchodilator activity is estimated as the % inhibition of bronchoconstrictor response to MeCH on resistance.

[5] = tested on: TNFα secretion, THP-1 cells; assay: TEST C: Inhibition of TNFα Secretion (THP-1 cells, γ-interferon/LPS); format: cell-based; details: Homo sapiens, LPS, γ-interferon, 40 hours, hydrogen-oxalate salt
Experimental: TEST C: Inhibition of TNFα Secretion
900 μl THP-1 cells (0.5 10^6 cells together with 100 U γ-interferon/0.9 ml) are pipetted into 24 well culture plates and followed by 100 μl test substance. After 3 hours at 37° C. in 5% CO2 /95% air, 10 μl LPS 5 μg/ml is added and the incubation continued for a further 40 hours. Appropriate controls are also included. The media are then removed and clarified by centrifugation at 1000 g for 10 min. 1.0 ml digitonin 0.01% is added to the wells to lyse the cells which are loosened by scraping with a rubber policeman and left at 4° C. for 10 min. Lactate dehydrogenase measurements are then performed immediately and the samples stored at […] until the other determinations can be performed. The assays are: IL-1β (medium), TNF-α (medium), and DNA (lysates). IL-1β, and TNF-α assays are determined using commercially available ELISA kits.
The method of Kapuscinski et al Anal. Biochem. (83, 252-257 (1977) is used to assay DNA. 300 μl samples of cell lysate in 0.01% digitonin are mixed with 750 μl tris-HCl buffer pH 7.0 (containing 13.2 mM Na2 SO4), 300 μl H2 O and 150 μl DAPI (4',6-diamidino-2-phenylindole.2HCl) 2 μg/ml. The fluorescence is then measured at 372 nm (excitation) and 454 nm (emission) using a Perkin Elmer 3000 fluorimeter. The samples are read against a standard curve of calf thymus DNA (0.5 to 10 μg/ml) run at the same time. […]

[6] = tested on: SRS-A induced bronchoconstriction; assay: TEST H experiment 2: Suppression of SRS-A Induced Bronchoconstriction (tracheal instillation, inhaled ovalbumin); format: in vivo, guinea pig (Dunkin-Hartley); details: Cavia porcellus, i.t., hydrogen-oxalate salt
Experimental: TEST H: Suppression of SRS-A Induced Bronchoconstriction
(§1) Guinea pigs (Dunkin-Hartley, male, 400-600 g) are anesthethized with phenobarbital (100 mg/kg i.p.) and pentobarbital (30 mg/kg i.p.) and paralyzed with gallamine (100 mg/kg i.m.) Animals are ventilated via a tracheal cannula (8 ml/kg, 1 Hz) with a mixture of air and oxygen (45:55 v/v). Blood pressure and heart rate are recorded at the carotid artery. Ventilation is monitored by a Fleisch flow transducer in line with the inspiratory circuit. When making measurements of flow, coincident pressure changes in the thorax are monitored directly via an intrathoracic trochar, permitting display of differential pressure relative to the trachea. From this information in relation to flow and differential pressure, resistance [R1 ] and compliance [Cdyn ] are calculated using a digital respiratory analyzer for each respiratory cycle.
Test animals are passively sensitized 24 hrs. prior to testing by administration of homologous anti-ovalbumin antiserum (1 ml i.v.). […] Allergen challenge is achieved by administration of ovalbumin (OA) and the resultant bronchoconstrictor response is used as a functional read-out of SRS-A activity.
2) In the second, animals are challenged with OA (1.0 or 1.8 mg/ml inhaled over 60 breaths) and the effect of test compound, administered at varying dosage directly into the lung by tracheal instillation, is measured.

[7] = tested on: lymphocytes from the spleen of Balb/c and CBA mice; assay: TEST L: Murine Mixed Lymphocyte Reaction; format: cell-based; details: Mus musculus, 120 h, thymidine incorporation, 5 days, hydrogen-oxalate salt
Experimental: TEST L: Murine Mixed Lymphocyte Reaction
Ca. 0.5×10^6 lymphocytes from the spleen of female (8-10 weeks) Balb/c mice are incubated for 5 days in 0.2 ml cell growth medium with ca. 0.5×10^6 lymphocytes from the spleen of female (8-10 weeks) CBA mice. Test substance is added to the medium at various concentrations. Activity is assessed by ability to suppress proliferation associated DNA synthesis as determined by incorporation of radiolabelled thymidine.

[8] = hemodynamics, plasma glucose and tolerability in conscious dogs; format: in vivo, dog; details: hydrogen-oxalate salt
human eosinophils = assay: TEST B: Inhibition of Eosinophil Activation by fMLP (oxidative burst, chemiluminescence); format: cell-based; details: fMLP 1 μM, hydrogen-oxalate salt
Experimental: TEST B: Inhibition of Eosinophil Activation by formyl-MetLeuPhe (fMLP)
Purified human eosinophils (10^4 /well in 0.2 ml HBSS) are stimulated with fMLP (1 μM) in the presence of lucigenin (25 μM). Inhibition of the oxidative burst (measured as changes in chemiluminescence) is determined from dose response curves using the logistic equation.

PDE IV = assay: inhibition of PDE IV added to plasma after administration to conscious dogs; format: in vivo; details: up to 0.3 mg/kg i.v. or 0.6 mg/kg p.o., hydrogen-oxalate salt
[9] = tested on: SRS-A induced bronchoconstriction; assay: TEST H experiment 1: Suppression of SRS-A Induced Bronchoconstriction (i.v. infusion); format: in vivo, guinea pig (Dunkin-Hartley); details: FPL 55712 10 mg/kg i.v.
Experimental: as §1, with “TEST H: Suppression of SRS-A Induced Bronchoconstriction Guinea” for “Guinea”, “cycle. Test animals are passively sensitized 24 hrs. prior to testing by administration of homologous anti-ovalbumin antiserum (1 ml i.v.). […] Allergen challenge is achieved by administration of ovalbumin (OA) and the resultant bronchoconstrictor response is used as a functional read-out of SRS-A activity. […]” for “cycle.”

SRS-A = assay: TEST D: Inhibition of SRS-A Production (ovalbumin challenge); format: in vivo, guinea-pig; details: 10 mg/kg i.v. 1 minute prior to challenge
Experimental: TEST D: Inhibition of SRS-A Production Guinea-pigs are passively sensitized 24 hrs. prior to testing by i.v. administration of 1 ml homologous anti-ovalbumin antiserum. Prior to antigen challenge test animals are pre-treated with 0.32 mg/kg propanol i.v. (inhibition of endogenous catecholamines), 3.2 mg/kg, i.v. mepyramine (H1 receptor antagonism) and 3.2 mg/kg, i.v. indomethacin (inhibition of cyclo-oxygenase). Allergen challenge is effected by administration of 32 μg/kg, ovalbumin i.v. and the resultant constrictor response on airways resistance used as a functional read out of SRS-A activity. Separate test groups receive 10 mg/kg, i.v. FPL 55712 (an LTD4 receptor antagonist) 1 minute prior to challenge or test substance at varying dosage, i.v. by infusion, beginning 16 minutes prior to challenge.

[10] = up to 0.3 mg/kg i.v. or 0.6 mg/kg p.o.

Q: Which “lethality (TEST E)” value [1] does the source give for CCc1cc2cc(OCCO)c(OC)cc2c(-c2cc(OC(C)C)cc(OC(C)C)c2)n1 [Example 1, 1-(3,5-diisopropoxyphenyl)-3-ethyl-6-(2-hydroxyethoxy)-7-methoxy-isoauinoline] here?
A: no animals dying

Q: And the “protection (TEST E)” value [1]?
A: COMPLETE PROTECTION

Q: And the stable stock solution [2]?
A: 30 mM

Q: And the “heart rate (rabbit)” value (cardiovascular effects; of the order of 1 mg/kg)?
A: only slight decrease in heart rate

Q: And the cardiovascular side effects (cardiovascular effects; up to the order of 0.3 mg/kg)?
A: no cardiovascular side effects

Q: What about the IC50 ([3]; TEST A, 1 μM [3H]-cyclic AMP substrate, hydrogen-oxalate salt) of the same compound?
A: 2.9 ± 1.2 nM

Q: And the “fold greater activity in inhibiting the type IV isoenzyme than other isoenzyme preparations tested” value ([3]; type IV vs other isoenzyme preparations, hydrogen oxalate salt)?
A: at least 180 fold

Q: And the ED20 ([4]; Macaca mulatta, inhaled or nasal, MeCH aerosol, test substance in lactose suspension)?
A: 0.0414 ± 0.0099 µg/kg

Q: And the “potency less than that of Albuterol (TEST J)” value ([4]; times less potent than Albuterol)?
A: ca. 3.5 ×

Q: And the IC50 [5]?
A: ~100 nM

Q: What about the ED50 ([6]; ovalbumin 1 mg/ml, read-out: ED50 vs. ovalbumin @1 mg/ml) of the same compound?
A: 5 µg/kg

Q: What about the ED50 ([6]; ovalbumin 1.8 mg/ml, read-out: ED50 vs. ovalbumin @1.8 mg/ml) of the same compound?
A: 50 µg/kg

Q: What about the IC50 [7] of the same compound?
A: 12 ± 9 nM

Q: And the tolerability ([8]; all dosages)?
A: generally well tolerated

Q: And the “change in heart rate” value [8, 10]?
A: no or only minimal change

Q: And the “change in mean arterial pressure” value [8, 10]?
A: no or only minimal change

Q: And the “change in plasma glucose concentrations” value [8, 10]?
A: no or only minimal change

Q: What about the IC50 (human eosinophils) of the same compound?
A: 60 ± 30 nM

Q: What about the “inhibition of PDE IV added to plasma” value (PDE IV) of the same compound?
A: substantial and long-lasting inhibition

Q: What does the source list for CCCc1c(OCC(O)COc2ccc3c(=O)cc(C(=O)O)oc3c2CCC)ccc(C(C)=O)c1O (stereo not drawn) [FPL 55712]?
A: bronchoconstrictor effect of OA (experiment 1) [9]: abolished; effect on bronchoconstriction (TEST D) (SRS-A): abolition of bronchoconstriction
